Measured values published in patent publication US6414138B1, “Process for producing mixtures rich in 1,6-GPS or 1,1-GPM” (Sudzucker Aktiengesellschaft, priority 1997, dated 2002).

Test: Solubility of 1,1-GPM and 1,6-GPS in water / aqueous suspension
Type: physicochemical
Details: seed crystals mixed into concentrated aqueous solution of hydrogenated isomaltulose, about 50-65° C.
Protocol: Since the solubility equilibrium is temperature-dependent, the concentration ratio of the two components can advantageously be preset. After the solubility equilibrium is adjusted, the 1,1-GPM and 1,6-GPS concentration in the products can be controlled by setting the rate for the temperature change.
In another preferred embodiment of the invention, a suspension which is formed by the addition of, for example, crystalline hydrogenated isomaltulose in water, is heated to, for example, 85° C. to completely dissolve the solute, whereafter the cooling step to crystallize the solution is combined with a seeding step. The seeding step, however, is not essential. Advantageously, powdered hydrogenated isomaltulose in crystalline form or in the form of a suspension can be used. Most advantageously, the suspension is formed in water or in an organic solvent, such as isopropanol, and a food-compatible dispersing agent acting as a solvent can be added, if necessary. […]
The two constituents of hydrogenated isomaltulose, i.e. 1,1-GPM and 1,6-GPS, have a different solubility in aqueous solutions (FIG. 4). […] The 1,1-GPM component, which crystallizes more readily, is concentrated in the solid fraction of the suspension, whereas the 1,6-GPS component, which crystallizes less readily, goes preferentially into solution. […]

solubility (in words)	Structure (SMILES)
only slightly soluble	OC[C@@H](O)[C@@H](O)[C@H](O)[C@H](O)CO[C@H]1O[C@H](CO)[C@@H](O)[C@H](O)[C@H]1O [1,1-GPM, 1-0-α-D-Glucopyranosyl-D-mannite]
readily soluble	OC[C@H](O)[C@@H](O)[C@H](O)[C@H](O)CO[C@H]1O[C@H](CO)[C@@H](O)[C@H](O)[C@H]1O [1,6-GPS, 6-0-α-D-Glucopyranosyl-D-sorbite]
